Data reported in patent US20070286888A1, “Additive For Feeds And Feed Containing The Same” (Kabushiki Kaisha Yakult Honsha, priority 2004, published 2007).

What was measured:
[1] = system: L. reuteri YIT0480 strain; experiment: Antibiotic resistance test, L. reuteri; format: cell-based, Lactobacillus reuteri
Description: (§1) The 11 antibiotics shown in Table 3 were separately added at concentrations of 100, 10, 1, 0.1, and 0 μg/ml, to thereby prepare MRS agar mediums (manufactured by Difco). Subsequently, cell culture solutions of the five bacterial stains (A) and (B) obtained in Production Example 1 (10 μl each) were separately inoculated into the respective antibiotic-containing MRS mediums (the cell number of each bacterial strain: about 1·10^8 cells/ml), followed by smear culture at 37° C. for 48 hours under anaerobic conditions. The proliferated bacteria were evaluated with the naked eye, and the […] for each antibiotic (μg/ml) were calculated.

[2] = system: L. equi YIT0483 strain; experiment: Antibiotic resistance test, L. equi; format: cell-based, Lactobacillus equi
Description: as §1

[3] = system: five Lactobacillus bacterial stains (A) and (B); experiment: Antibiotic resistance test, all five strains; format: cell-based
Description: as §1

[4] = system: L. johnsonii YIT0482 strain; experiment: Antibiotic resistance test, L. johnsonii; format: cell-based, Lactobacillus johnsonii
Description: as §1

[5] = Proliferative activity test in skim milk media; format: cell-based; parameters: key to Proliferative activity 24 hours later SM / Proliferative activity 24 hours later YE / Proliferative activity 24 hours later P / Proliferative activity 24 hours later YP / Proliferative activity 48 hours later SM / Proliferative activity 48 hours later YE / Proliferative activity 48 hours later P / Proliferative activity 48 hours later YP: ∘: completely solidified culture solution due to proliferated cells; Δ: semifluid culture solution with slightly proliferated cells; x: liquid culture solution with unproliferated cells; details: for Proliferative activity 24 hours later P / Proliferative activity 48 hours later P: 0.1% peptone +10% skim milk; for Proliferative activity 24 hours later P / Proliferative activity 48 hours later P / Proliferative activity 24 hours later YP / Proliferative activity 48 hours later YP / Proliferative activity 24 hours later YE / Proliferative activity 48 hours later YE / Proliferative activity 24 hours later SM / Proliferative activity 48 hours later SM: 37° C.; for Proliferative activity 24 hours later YP / Proliferative activity 48 hours later YP: 0.1% yeast extract +0.1% peptone +10% skim milk; for Proliferative activity 24 hours later YE / Proliferative activity 48 hours later YE: 0.1% yeast extract +10% skim milk; for Proliferative activity 24 hours later SM / Proliferative activity 48 hours later SM: 10% skim milk
Description: Four mediums, i.e., 10% skim milk (SM), 0.1% yeast extract (manufactured by Difco) +10% skim milk (YE), 0.1% peptone (manufactured by Difco) +10% skimmilk (P), and 0.1% yeast extract (manufactured by Difco) +0.1% peptone (manufactured by Difco) +10% skimmilk (YP) were subjected to high-pressure heat sterilization at 115° C. for 15 minutes, and then cell culture solutions of the five bacterial stains (A) and (B) obtained in Production Example 1 above (30 μl each) were separately inoculated into 3 ml of the respective mediums (the cell number of each bacterial strain: about 3·10^8 cells/ml), followed by culture at 37° C. for 24 hours and 48 hours. For proliferative activity tests, the culture solutions were evaluated based on the following criteria: completely solidified culture solution due to proliferated cells: “∘”; semifluid culture solution with slightly proliferated cells: “Δ”; and liquid culture solution with unproliferated cells: “x”.

[6] = system: horse gastric mucosal epithelial cell; experiment: Cell adhesion test to horse gastric mucosal epithelial cell; format: cell-based; details: for Adhesion of bacteria to horse gastric mucosal epithelial cell: cells adhered to one gastric mucosal epithelial cell, 37° C., Giemsa stain
Description: Meanwhile, gastric mucosal epithelial tissue pieces (1 cm^2) taken from a horse were added to 3 ml (the cell number of each bacterial strain: about 3·10^8 cells/ml) of cell culture solutions of the five bacterial stains (A) and (B) obtained in Production Example 1 above, followed by culture with shaking at 37° C. Then, the gastric mucosal epithelial tissue pieces were washed with a buffer (composition: 0.8% NaCl; 0.121% K2HPO4; 0.034% KH2PO4; pH 7.2) several times, and the gastricmucosal epithelial cells were scraped off from the gastric mucosal epithelial tissue pieces under a stereomicroscope, followed by Giemsa stain. The resultant cells were used to count the number of cells of each bacterial strain that adhered to one gastric mucosal epithelial cell under a microscope, and the adhesion was evaluated.

[7] = Proliferative Activity Test 3 in presence of ofloxacin; format: cell-based; parameters: key: ∘: fully proliferated; Δ: slightly proliferated; x: unproliferated; details: MRS agar, 37° C., 48 hours, anaerobic
Description: (§2) Meanwhile, the proliferative activity test in the presence of an antibiotic was performed using cell culture solutions containing (A) L. equi YIT0483 strain and (B) at least one selected from the four Lactobacillus strains in combination.
(§3) MRS agar mediums (manufactured by Difco) to which ofloxacin was added as an antibiotic at concentrations of 100, 50, 20, and 0 μg/ml were prepared. Subsequently, a cell culture solution of only (A) L. equi strain and a mixed cell culture solution of (A) L. equi strain and (B) L. johnsonii strain or L. equi strain and L. crispatus strain (10 μl each) were separately inoculated into the respective antibiotic-containing MRS mediums (the cell number of each bacterial strain: about 1·10^6 cells/ml), followed by smear culture at 37° C. for 48 hours under anaerobic conditions. Then, the proliferative activities of the bacteria were evaluated with the naked eye.

[8] = Proliferative Activity Test 2 in presence of gentamicin; format: cell-based; parameters: key: ∘: fully proliferated; Δ: slightly proliferated; x: unproliferated; details: MRS agar, 37° C., 48 hours, anaerobic
Description: as §2
as §3, with “gentamicin” for “ofloxacin”, “johnsonii” for “johnsonii strain or L. equi strain and L. crispatus”

[9] = Proliferative Activity Test 1 in presence of oxytetracycline hydrochloride; format: cell-based; parameters: key: ∘: fully proliferated; Δ: slightly proliferated; x: unproliferated; details: MRS agar, 37° C., 48 hours, anaerobic
Description: as §2
as §3, with “oxytetracycline hydrochloride” for “ofloxacin”, “10, 5, 2,” for “100, 50, 20,”, “µg/ml” for “μg/ml”, “reuteri” for “johnsonii strain or L. equi strain and L. crispatus”

Row | Molecule | Proliferative activity 24 hours later P [5] | Proliferative activity 48 hours later P [5] | Proliferative activity 24 hours later YP [5] | Proliferative activity 48 hours later YP [5] | Proliferative activity 24 hours later YE [5] | Proliferative activity 48 hours later YE [5] | Proliferative activity 24 hours later SM [5] | Proliferative activity 48 hours later SM [5] | Adhesion of bacteria to horse gastric mucosal epithelial cell [6] | further results
1 | CC1(C)S[C@@H]2[C@H](NC(=O)[C@H](N)c3ccccc3)C(=O)N2[C@H]1C(=O)O [Ampicillin] | – | – | – | – | – | – | – | – | – | Resistance of the strain to the antibiotic (in words) [1]: particularly excellent resistance
2 | CC1(C)S[C@@H]2[C@H](NC(=O)Cc3ccccc3)C(=O)N2[C@H]1C(=O)O [Benzylpenicillin] | – | – | – | – | – | – | – | – | – | Resistance of the strain to the antibiotic (in words) [1]: stronger resistance
3 | CC(=O)OCC1=C(C(=O)O)N2C(=O)[C@@H](NC(=O)Cc3cccs3)[C@H]2SC1 [Cefalotin sodium] | – | – | – | – | – | – | – | – | – | Resistance of the strain to the antibiotic (in words) [1]: particularly excellent resistance
4 | CO/N=C(\C(=O)N[C@@H]1C(=O)N2C(C(=O)O)=C(CSc3nc(=O)c(=O)[nH]n3C)CS[C@H]12)c1csc(N)n1 [Ceftriaxone sodium] | – | – | – | – | – | – | – | – | – | Resistance of the strain to the antibiotic (in words) [2]: excellent specific resistance
5 | CN[C@@H]1[C@H](O[C@H]2[C@H](O[C@H]3[C@H](O)[C@@H](O)[C@H](NC(=N)N)[C@@H](O)[C@@H]3NC(=N)N)O[C@@H](C)[C@]2(O)CO)O[C@@H](CO)[C@H](O)[C@H]1O [Dihydrostreptomycin] | – | – | – | – | – | – | – | – | – | Resistance of the strains to the antibiotic (in words) [3]: excellent resistance
6 | COc1cc(NS(=O)(=O)c2ccc(N)cc2)ncn1 [Sulfamonomethoxine] | – | – | – | – | – | – | – | – | – | Resistance of the strains to the antibiotic (in words) [3]: excellent resistance
7 | Bactramin | – | – | – | – | – | – | – | – | – | Resistance of the strains to the antibiotic (in words) [3]: excellent resistance
8 | Gentamicin | – | – | – | – | – | – | – | – | – | Resistance of the strain to the antibiotic (in words) [4]: excellent specific resistance
9 | Lactobacillus crispatus YIT0481 strain [(B) L. crispatus YIT0481 strain] | ∘ | ∘ | ∘ | ∘ | ∘ | ∘ | x | ∘ | + (1-9 cells adhered to one gastric mucosal epithelial cell) | –
10 | Lactobacillus equi YIT0483 strain [(A) L. equi YIT0483 strain] | ∘ | ∘ | ∘ | ∘ | ∘ | ∘ | ∘ | ∘ | ++ (10-99 cells adhered to one gastric mucosal epithelial cell) | Proliferative activity, Ofloxacin 0 μg/ml ([7]; ofloxacin 0 μg/ml): ∘; Proliferative activity, Ofloxacin 20 μg/ml ([7]; ofloxacin 20 μg/ml): x; Proliferative activity, Ofloxacin 50 μg/ml ([7]; ofloxacin 50 μg/ml): x; Proliferative activity, Ofloxacin 100 μg/ml ([7]; ofloxacin 100 μg/ml): x; Proliferative activity, Genatmicin 0 μg/ml ([8]; gentamicin 0 μg/ml): ∘; Proliferative activity, Genatmicin 20 μg/ml ([8]; gentamicin 20 μg/ml): Δ; Proliferative activity, Genatmicin 50 μg/ml ([8]; gentamicin 50 μg/ml): x; Proliferative activity, Genatmicin 100 μg/ml ([8]; gentamicin 100 μg/ml): x; Proliferative activity (in words) ([5]; under the respective medium conditions): excellent proliferative activity; Proliferative activity, Oxytetracycline 0 μg/ml ([9]; oxytetracycline 0 μg/ml): ∘; Proliferative activity, Oxytetracycline 2 μg/ml ([9]; oxytetracycline 2 μg/ml): x; Proliferative activity, Oxytetracycline 5 μg/ml ([9]; oxytetracycline 5 μg/ml): x; Proliferative activity, Oxytetracycline 10 μg/ml ([9]; oxytetracycline 10 μg/ml): x; Adhesion to horse gastric mucosal epithelial cells (in words) [6]: excellent
11 | Lactobacillus johnsonii YIT0482 strain [(B) L. johnsonii YIT0482 strain] | ∘ | ∘ | ∘ | ∘ | ∘ | ∘ | x | x | + (1-9 cells adhered to one gastric mucosal epithelial cell) | –
12 | Lactobacillus reuteri YIT0480 strain [(B) L. reuteri YIT0480 strain] | ∘ | ∘ | ∘ | ∘ | ∘ | ∘ | x | x | + (1-9 cells adhered to one gastric mucosal epithelial cell) | –
13 | Lactobacillus salivarius YIT0479 strain [(B) L. salivarius YIT0479 strain] | ∘ | ∘ | ∘ | ∘ | ∘ | ∘ | x | ∘ | ++ (10-99 cells adhered to one gastric mucosal epithelial cell) | –
